Patent US20240116985A1, “STAPLED PEPTIDES AND METHODS THEREOF” (priority 2020, published 2024)

Legend:
[1] = target: T1, full-length beta-Catenin (Uniprot ID P35222) (Homo sapiens, UniProt P35222); assay: Fluorescence polarization IC50 (beta-catenin / 5FAM-TCF4 10-53 competition); assay type: binding; conditions: fluorescence polarization; read-out: beta-Catenin FP IC50
T1 construct: 10 nM full-length beta-Catenin (Uniprot ID P35222)
T1 sequence (P35222 1-781): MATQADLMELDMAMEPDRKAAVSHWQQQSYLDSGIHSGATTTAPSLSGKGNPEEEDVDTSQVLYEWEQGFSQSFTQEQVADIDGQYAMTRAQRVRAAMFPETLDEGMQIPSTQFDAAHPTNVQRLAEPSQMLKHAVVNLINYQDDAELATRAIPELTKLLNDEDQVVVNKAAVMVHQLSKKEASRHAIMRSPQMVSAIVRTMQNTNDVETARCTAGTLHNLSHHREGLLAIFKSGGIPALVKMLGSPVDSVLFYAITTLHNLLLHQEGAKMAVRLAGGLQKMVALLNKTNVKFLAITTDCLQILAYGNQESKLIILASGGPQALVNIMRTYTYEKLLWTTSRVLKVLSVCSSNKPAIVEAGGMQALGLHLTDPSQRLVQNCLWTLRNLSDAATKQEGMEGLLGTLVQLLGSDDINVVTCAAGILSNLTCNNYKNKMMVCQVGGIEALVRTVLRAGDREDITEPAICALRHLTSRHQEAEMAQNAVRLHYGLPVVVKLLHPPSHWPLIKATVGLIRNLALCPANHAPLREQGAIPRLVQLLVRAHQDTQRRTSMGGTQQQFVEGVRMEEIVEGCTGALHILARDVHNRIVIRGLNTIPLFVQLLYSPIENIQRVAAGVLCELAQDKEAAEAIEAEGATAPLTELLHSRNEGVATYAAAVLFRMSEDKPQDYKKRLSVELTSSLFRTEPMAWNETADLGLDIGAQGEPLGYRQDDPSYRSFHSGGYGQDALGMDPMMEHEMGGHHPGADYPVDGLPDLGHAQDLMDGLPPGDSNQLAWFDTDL

[2] = target: T2, beta-catenin/TCF4 engagement (Homo sapiens, UniProt P35222); assay: Nano-BRET target engagement assay (B-cat-Halo & TCF4-Luc in HEK293 cells); assay type: cell-based; conditions: read-out: NanoBRET Abs IC50
T2 construct: expressed in transfected cells; host or cells: HEK293
T2 sequence (P35222 1-781): T1 sequence (P35222 1-781)

| Compound | IC50 [1] [µM] | IC50 [2] [µM] |
| --- | --- | --- |
| CCCC[C@@H]1NC(=O)[C@H](Cc2cccc(C(=O)O)c2)NC(=O)[C@H](CC(=O)O)NC(=O)C2(CCCC=CCCCOC(=O)N3CC[C@@](C(=O)N[C@@H](Cc4ccsc4)C(=O)N[C@@H](Cc4csc5ccccc45)C(=O)N[C@@H](CC(C)(C)C)C(N)=O)(C3)NC(=O)[C@H](CC(C)C)NC(=O)[C@H](Cc3ccccc3)NC(=O)[C@H](C)NC1=O)CCCC=CC[C@]1(CCCN1C(C)=O)C(=O)N[C@@H](CC(=O)O)C(=O)N[C@@H](CC(C)(C)C)C(=O)N2 (stereo partly drawn) [I-2193, Ac-PL3-Asp-Npg-B5-Asp-3COOHF-nLeu-Ala-Phe-Leu-PyrS2-3Thi-BztA-Npg-NH2] | 0.164 | 39.9 |
| CC(=O)N1CCC[C@]12CC=CCCCC1(CCCC=CCCCOC(=O)N3CC[C@@](C(=O)N[C@@H](Cc4ccsc4)C(=O)N[C@@H](Cc4csc5ccccc45)C(=O)N[C@@H](CC(C)(C)C)C(N)=O)(C3)NC(=O)[C@H](CC(C)C)NC(=O)[C@H](Cc3ccccc3)NC(=O)[C@H](C)NC(=O)C(C)(C)NC(=O)[C@H](Cc3cccc(C(=O)O)c3)NC(=O)[C@H](CC(=O)O)NC1=O)NC(=O)[C@H](CC(C)(C)C)NC(=O)[C@H](CC(=O)O)NC2=O (stereo partly drawn) [I-2194, Ac-PL3-Asp-Npg-B5-Asp-3COOHF-Aib-Ala-Phe-Leu-PyrS2-3Thi-BztA-Npg-NH2] | 0.091 | 8.8 |
| CC(=O)N1CCC[C@]12CC=CCCCC1(CCCC=CCCCOC(=O)N3CC[C@@](C(=O)N[C@@H](Cc4ccsc4)C(=O)N[C@@H](Cc4csc5ccccc45)C(=O)N[C@@H](CC(C)(C)C)C(N)=O)(C3)NC(=O)[C@H](CC(C)C)NC(=O)[C@H](Cc3ccccc3)NC(=O)[C@H](C)NC(=O)[C@H](CO)NC(=O)[C@H](Cc3cccc(C(=O)O)c3)NC(=O)[C@H](CC(=O)O)NC1=O)NC(=O)[C@H](CC(C)(C)C)NC(=O)[C@H](CC(=O)O)NC2=O (stereo partly drawn) [I-2195, Ac-PL3-Asp-Npg-B5-Asp-3COOHF-Ser-Ala-Phe-Leu-PyrS2-3Thi-BztA-Npg-NH2] | 0.062 | 21 |
| CC(=O)N1CCC[C@]12CC=CCCCC1(CCCC=CCCCOC(=O)N3CC[C@@](C(=O)N[C@@H](Cc4ccsc4)C(=O)N[C@@H](Cc4csc5ccccc45)C(=O)N[C@@H](CO)C(N)=O)(C3)NC(=O)[C@H](CC(C)C)NC(=O)[C@H](Cc3ccccc3)NC(=O)[C@H](C)NC(=O)[C@H](C)NC(=O)[C@H](Cc3ccc(F)c(C(=O)O)c3)NC(=O)[C@H](CC(=O)O)NC1=O)NC(=O)[C@H](CC(C)(C)C)NC(=O)[C@H](CC(=O)O)NC2=O (stereo partly drawn) [I-2202, Ac-PL3-Asp-Npg-B5-Asp-4F3COOHF-Ala-Ala-Phe-Leu-PyrS2-3Thi-BztA-Ser-NH2] | 0.011 | 5 |
| CC(=O)N1CCC[C@]12CC=CCCCC1(CCCC=CCCCOC(=O)N3CC[C@@](C(=O)N[C@@H](Cc4ccccc4Cl)C(=O)N[C@@H](Cc4csc5ccccc45)C(=O)N[C@@H](CCC(N)=O)C(N)=O)(C3)NC(=O)[C@H](CC(C)C)NC(=O)[C@H](Cc3ccccc3)NC(=O)[C@H](C)NC(=O)[C@H](C)NC(=O)[C@H](Cc3ccc(F)c(C(=O)O)c3)NC(=O)[C@H](CC(=O)O)NC1=O)NC(=O)[C@H](CC(C)(C)C)NC(=O)[C@H](CC(=O)O)NC2=O (stereo partly drawn) [I-2203, Ac-PL3-Asp-Npg-B5-Asp-4F3COOHF-Ala-Ala-Phe-Leu-PyrS2-2C1F-BztA-Gln-NH2] | 0.009 | 2.9 |
| CC(=O)N1CCC[C@]12CC=CCCCC1(CCCC=CCCCOC(=O)N3CC[C@@](C(=O)N[C@@H](Cc4ccccc4Cl)C(=O)N[C@@H](Cc4csc5ccccc45)C(=O)N[C@@H](CCC(N)=O)C(N)=O)(C3)NC(=O)[C@H](CC(C)C)NC(=O)[C@H](Cc3ccccc3)NC(=O)[C@H](C)NC(=O)[C@H](C)NC(=O)[C@H](Cc3ccc(F)c(C(=O)O)c3)NC(=O)[C@H](CC(=O)O)NC1=O)NC(=O)[C@H](CC(C)(C)C)NC(=O)[C@H](CC(=O)O)NC2=O (stereo partly drawn) [I-2204, Ac-PL3-Asp-Npg-B5-Asp-4F3COOHF-Ala-Ala-Phe-Leu-PyrS2-2C1F-BztA-Gln-NH2] | 0.01 | 3.3 |
